Patent publication US20240174727A1, “LONG-ACTING NATRIURETIC PEPTIDES AND USES THEREOF” (Eli Lilly and Company, priority 2022, published 2024)

System: plasma cGMP
Test: In vivo monkey studies, plasma cGMP ELISA
Set-up: species or system male cynomolgus monkeys
Settings: for Net cGMP (nM) Change from Baseline 0.083 h: 0.083 h postdose; for Net cGMP (nM) Change from Baseline 0.083 h / Net cGMP (nM) Change from Baseline 0.25 h / Net cGMP (nM) Change from Baseline 0.5 h / Net cGMP (nM) Change from Baseline 1 h / Net cGMP (nM) Change from Baseline 2 h / Net cGMP (nM) Change from Baseline 4 h / Net cGMP (nM) Change from Baseline 8 h / Net cGMP (nM) Change from Baseline 12 h / Net cGMP (nM) Change from Baseline 24 h / Net cGMP (nM) Change from Baseline 36 h / Net cGMP (nM) Change from Baseline 48 h / Net cGMP (nM) Change from Baseline 72 h / Net cGMP (nM) Change from Baseline 96 h / Net cGMP (nM) Change from Baseline 120 h / Net cGMP (nM) Change from Baseline 144 h / Net cGMP (nM) Change from Baseline 168 h: monkey plasma; for Net cGMP (nM) Change from Baseline 0.25 h: 0.25 h postdose; for Net cGMP (nM) Change from Baseline 0.5 h: 0.5 h postdose; for Net cGMP (nM) Change from Baseline 1 h: 1 h postdose; for Net cGMP (nM) Change from Baseline 2 h: 2 h postdose; for Net cGMP (nM) Change from Baseline 4 h: 4 h postdose; for Net cGMP (nM) Change from Baseline 8 h: 8 h postdose; for Net cGMP (nM) Change from Baseline 12 h: 12 h postdose; for Net cGMP (nM) Change from Baseline 24 h: 24 h postdose; for Net cGMP (nM) Change from Baseline 36 h: 36 h postdose; for Net cGMP (nM) Change from Baseline 48 h: 48 h postdose; for Net cGMP (nM) Change from Baseline 72 h: 72 h postdose; for Net cGMP (nM) Change from Baseline 96 h: 96 h postdose; for Net cGMP (nM) Change from Baseline 120 h: 120 h postdose; for Net cGMP (nM) Change from Baseline 144 h: 144 h postdose; for Net cGMP (nM) Change from Baseline 168 h: 168 h postdose; for net cGMP levels (result in words): monkeys, single SC dose, plasma
Description: In vivo monkey studies were conducted as described in detail below. Young adult-to-adult male cynomolgus monkeys were given a single dose subcutaneously (SC). Blood was collected predose and at various pre-determined timepoints throughout the study period. Aliquot of cynomolgus monkey plasma was received for cyclic cGMP (cGMP) measurement and stored at −80° C. prior to use.
Control plasma was made for determining the recovery rate of spike-in cGMP using Enzo cGMP complete ELISA kit (Enzo Life Sciences, Inc, Farmingdale, NY, cat no. ADI-901-164). Briefly, blood from male Sprague Dawley rats (Inotiv, Indianapolis, IN), about 7 months old, was collected in a BD Vacutainer EDTA tube (Becton Dickinson, Franklin Lakes, NJ, cat no. BD-367856) with volume of approximate 4 mL through retro orbital bleeding. Plasma was prepared by spinning the tube in an Eppendorf Refrigerated Centrifuge 5810R (Brinkman Instruments, Inc, Westbury, NY) at 3500 rpm (3000×g) for 10 min at 4° C. Plasma was collected as Positive Control plasma. Cyclic GMP (cGMP standard from Enzo cGMP complete ELISA kit) was added to the positive control plasma at a final concentration of additional 40 nM. Positive Control and Spiked-in Control plasma were aliquoted and stored at −80° C.
The cGMP content was measured using the Enzo cGMP complete ELISA kit following the manufacturer's directions with modifications as described below. The cGMP standards provided in the kit were diluted 1:3 ranging from 50 nM to 0.023 nM in 1× assay buffer that was diluted in water from 2× assay buffer provided in the kit. The cGMP standards ([…]) were transferred to a 96-well polypropylene plate (Thermo Scientific, cat no. 442587).
Plasma samples were thawed from −80° C. and diluted 1:20 in 1× assay buffer in the above plate with a final volume of 150 μL. Assay buffer was added (150 μL) for both a non-specific binding control (in the absence of cGMP antibody) and a maximum binding control (in the absence of competing cGMP) in duplicate wells. Positive Control and Spiked-in Control plasma were diluted 1:20 in 1× assay buffer with a final volume of 150 μL in duplicate wells of the above plate. All diluted plasma was mixed by pipetting up and down several times.
Acetylation reagent mix was prepared by adding 1-part of acetic anhydride into 2-parts of triethylamine provided in the kit and mixing well using Vortex (Scientific Industries, Inc, Bohemia, NY). All controls, standards, and plasma samples were acetylated by adding 15 μL of acetylation reagent mix into the plate, one column at a time, and shaking for 1 min on a Titer Plate Shaker (Lab-Line Instrument, Inc., Melrose Park, IL) at room temperature. The plate was shaken for an additional 1 min following the acetylation of the last column to ensure the reaction was completed.
Acetylated controls, standard and plasma samples were transferred (100 μL) to an ELISA plate (n=1). Then 50 μL of cGMP conjugate were added to each well followed by the addition of 50 μL cGMP antibody to each well except for two non-specific binding wells, in which 50 μL of 1× assay buffer were added. The plate was then sealed and shaken for 2 h at room temperature on the plate shaker. Following this incubation, the plate was washed five times using 200 μL of 1× wash buffer diluted in water from 5× wash buffer provided in the kit. Then, 200 μL of para-Nitrophenylphosphate (pNpp) were added to each well. The plate was sealed with a new plate sealer and shaken in dark for 1 h at room temperature on the plate shaker. Finally, 50 μL of stop solution were added to each well to stop the enzyme reaction. The plate was then read at 405 nm using SpectraMax Plus (Molecular Devices, San Jose, CA).
The mean absorbance at 405 nm (O.D. 405 nm) for the non-specific binding controls was subtracted from the O.D. 405 nm of all samples. The subtracted O.D. 405 nm of all samples were then normalized with the mean subtracted O.D. 405 nm of the maximum binding controls as B/B0%. […]

Molecule: (BFAEN2-βAla)-EKEKEKG-PEG24-EK-βAla-RSS[CFGKRIDRIGHQSGLGC]PSFRHGSPSSGAPPPS-NH2 (EKXRSSCFGKRIDRIGHQSGLGCPSFRHGSPSSGAPPPS; BFAEN2-βAla, PEG24, C-terminal amide; MOD_RES 1 N-terminal modified with (BFAEN2-beta-Ala)-EKEKEKG-PEG24-; wherein BFAEN2 is Bifurcated Fatty Acid Enantiomer 2; SITE 3 X at position 3 is beta-Alanine; MOD_RES 39 Amidation; DISULFID 7..23 Intrachain thioacetal bond) [Example 144]
- Net cGMP (nM) Change from Baseline 0.083 h (dose 100 nmol/kg): 5.9 nM
- Net cGMP (nM) Change from Baseline 0.25 h (dose 100 nmol/kg): 18.26 nM
- Net cGMP (nM) Change from Baseline 0.5 h (dose 100 nmol/kg): 27.08 nM
- Net cGMP (nM) Change from Baseline 1 h (dose 100 nmol/kg): 36.51 nM
- Net cGMP (nM) Change from Baseline 2 h (dose 100 nmol/kg): 35.21 nM
- Net cGMP (nM) Change from Baseline 4 h (dose 100 nmol/kg): 27.1 nM
- Net cGMP (nM) Change from Baseline 8 h (dose 100 nmol/kg): 20.15 nM
- Net cGMP (nM) Change from Baseline 12 h (dose 100 nmol/kg): 13.2 nM
- Net cGMP (nM) Change from Baseline 24 h (dose 100 nmol/kg): 10.23 nM
- Net cGMP (nM) Change from Baseline 36 h (dose 100 nmol/kg): 9.57 nM
- Net cGMP (nM) Change from Baseline 48 h (dose 100 nmol/kg): 7.11 nM
- Net cGMP (nM) Change from Baseline 72 h (dose 100 nmol/kg): 5.22 nM
- Net cGMP (nM) Change from Baseline 96 h (dose 100 nmol/kg): 6.83 nM
- Net cGMP (nM) Change from Baseline 120 h (dose 100 nmol/kg): 3.5 nM
- Net cGMP (nM) Change from Baseline 144 h (dose 100 nmol/kg): 4.48 nM
- Net cGMP (nM) Change from Baseline 168 h (dose 100 nmol/kg): 8.71 nM
- net cGMP levels (result in words): increased net cGMP levels

Molecule: (BFAEN2-γGlu)-KEKEKG-PEG24-EK-βAla-RSS[CFGGKIDRIGHYSGLGC]PSFRHGSPSSGAPPPS-NH2 (EKXRSSCFGGKIDRIGHYSGLGCPSFRHGSPSSGAPPPS; BFAEN2-γGlu, PEG24, C-terminal amide; MOD_RES 1 N-terminal modified with (BFAEN2-beta-Ala)-KEKEKG-PEG24-; wherein BFAEN2 is Bifurcated Fatty Acid Enantiomer 2; SITE 3 X at position 3 is beta-Alanine; MOD_RES 39 Amidation; DISULFID 7..23 Intrachain thioacetal bond) [Example 145]
- Net cGMP (nM) Change from Baseline 0.083 h (dose 25 nmol/kg): -0.82 nM
- Net cGMP (nM) Change from Baseline 0.25 h (dose 25 nmol/kg): 2.94 nM
- Net cGMP (nM) Change from Baseline 0.5 h (dose 25 nmol/kg): 4.37 nM
- Net cGMP (nM) Change from Baseline 1 h (dose 25 nmol/kg): 3.19 nM
- Net cGMP (nM) Change from Baseline 2 h (dose 25 nmol/kg): 8.88 nM
- Net cGMP (nM) Change from Baseline 4 h (dose 25 nmol/kg): 11.23 nM
- Net cGMP (nM) Change from Baseline 8 h (dose 25 nmol/kg): 17.87 nM
- Net cGMP (nM) Change from Baseline 12 h (dose 25 nmol/kg): 22.09 nM
- Net cGMP (nM) Change from Baseline 24 h (dose 25 nmol/kg): 24.61 nM
- Net cGMP (nM) Change from Baseline 36 h (dose 25 nmol/kg): 31.53 nM
- Net cGMP (nM) Change from Baseline 48 h (dose 25 nmol/kg): 21.81 nM
- Net cGMP (nM) Change from Baseline 72 h (dose 25 nmol/kg): 21 nM
- Net cGMP (nM) Change from Baseline 96 h (dose 25 nmol/kg): 14.82 nM
- Net cGMP (nM) Change from Baseline 120 h (dose 25 nmol/kg): 14.4 nM
- Net cGMP (nM) Change from Baseline 144 h (dose 25 nmol/kg): 11.99 nM
- Net cGMP (nM) Change from Baseline 168 h (dose 25 nmol/kg): 5.89 nM
- net cGMP levels (result in words): increased net cGMP levels

Molecule: CC[C@H](C)[C@@H]1NC(=O)[C@H](CCCNC(=N)N)NC(=O)[C@H](CC(=O)O)NC(=O)[C@H]([C@@H](C)CC)NC(=O)[C@H](CCCNC(=N)N)NC(=O)[C@H](CCCCN)NC(=O)CNC(=O)[C@H](Cc2ccccc2)NC(=O)[C@@H](NC(=O)[C@H](CO)NC(=O)[C@H](CO)NC(=O)[C@H](CCCNC(=N)N)NC(=O)[C@H](CCCNC(=N)N)NC(=O)[C@H](Cc2ccncc2)NC(=O)[C@H](CO)NC(=O)CNC(=O)[C@H](CCCCN)NC(=O)[C@H](CCC(=O)O)NC(=O)[C@H](CCCCN)NC(=O)[C@H](CCC(=O)O)NC(=O)[C@H](CCCCN)NC(=O)[C@H](CCC(=O)O)NC(=O)CC[C@H](NC(=O)CCCCCCCCCCCCCCCCC(=O)O)C(=O)O)CSCSC[C@@H](C(=O)N2CCC[C@H]2C(=O)N[C@@H](CO)C(=O)N[C@@H](Cc2ccccc2)C(=O)N[C@@H](CCCNC(=N)N)C(=O)N[C@@H](Cc2c[nH]cn2)C(=O)NCC(=O)NCC(=O)N[C@@H](CCCCN)C(=O)N[C@@H](CO)C(=O)N[C@@H](CO)C(=O)NCC(=O)N[C@@H](C)C(=O)N2CCC[C@H]2C(=O)N2CCC[C@H]2C(=O)N2CCC[C@H]2C(=O)N[C@@H](CO)C(N)=O)NC(=O)CNC(=O)[C@H](CC(C)C)NC(=O)CNC(=O)[C@H](CO)NC(=O)[C@H](Cc2ccc(O)cc2)NC(=O)[C@H](Cc2c[nH]cn2)NC(=O)CNC1=O [Example 81]
- Net cGMP (nM) Change from Baseline 0.083 h (dose 100 nmol/kg): 5.6 nM
- Net cGMP (nM) Change from Baseline 0.25 h (dose 100 nmol/kg): 32.08 nM
- Net cGMP (nM) Change from Baseline 0.5 h (dose 100 nmol/kg): 37.47 nM
- Net cGMP (nM) Change from Baseline 1 h (dose 100 nmol/kg): 43.98 nM
- Net cGMP (nM) Change from Baseline 2 h (dose 100 nmol/kg): 38.64 nM
- Net cGMP (nM) Change from Baseline 4 h (dose 100 nmol/kg): 31.25 nM
- Net cGMP (nM) Change from Baseline 8 h (dose 100 nmol/kg): 23.05 nM
- Net cGMP (nM) Change from Baseline 12 h (dose 100 nmol/kg): 27.6 nM
- Net cGMP (nM) Change from Baseline 24 h (dose 100 nmol/kg): 22.83 nM
- Net cGMP (nM) Change from Baseline 36 h (dose 100 nmol/kg): 24.25 nM
- Net cGMP (nM) Change from Baseline 48 h (dose 100 nmol/kg): 15.44 nM
- Net cGMP (nM) Change from Baseline 72 h (dose 100 nmol/kg): 12.4 nM
- Net cGMP (nM) Change from Baseline 96 h (dose 100 nmol/kg): 10.48 nM
- Net cGMP (nM) Change from Baseline 120 h (dose 100 nmol/kg): 12.63 nM
- Net cGMP (nM) Change from Baseline 144 h (dose 100 nmol/kg): 9.54 nM
- Net cGMP (nM) Change from Baseline 168 h (dose 100 nmol/kg): 7 nM
- net cGMP levels (result in words): increased net cGMP levels
